# Experimental data from US9274101B2 (BIOLOG, Inc., priority 2001, dated 2016).
# Experiments:
# Format in all cases: cell-based, human
# [1] = tested on: Undifferentiated HL-60 cells; assay: Energy use by undifferentiated HL-60 cells
# HL-60 cells [2] = assay: HL-60 responses to selected compounds at a range of concentrations
# Procedure: In this Example, methods for testing unattached cells for their ability to use various concentrations of selected carbon sources are described. The carbon sources used in this Example were identified by the methods disclosed in Example 27. Similarly, HL-60 cells were cultured as described in Example 27.
# After washing, HL-60 cells were resuspended in DME-R. An aliquot of the cell suspension was counted by trypan blue exclusion and the cell density was adjusted to 6.67×10^5/mL. Fifty μL of DME-R were added to each well of the appropriate number of half area, 96-well plates, followed by 23 μL of the appropriate dilution of each test energy source. Stocks of 133 mM of each test chemical were prepared in tissue culture grade water, sterile filtered, and dilutions were prepared in a master plate so that, upon dilution in a total volume of 150 μL, the final concentrations would be 0.033 to 20 mM. Negative control wells received 23 μL of tissue culture grade water. The cells were plated at a volume of 75 μL/well, giving a final cell density of 5×10^4/well. For each plate containing energy sources and cells, a second, control plate containing only energy sources was prepared. Plates were incubated at 5% CO2, 90-100% humidity, and 37° C. for 24 hours prior to addition of the MTS/MPMS colorometric reagent (7.5 μL/well). The color formed in each well after an additional 24 hour incubation period, was measured on a plate reader at 490 nm with a reference wavelength of 650 nm. OD values from the control plate were subtracted from the OD values obtained with cells prior to normalizing the data to % negative control (cells without added energy source).
# HL-60 cells [3] = assay: Effect of 1 mM chloramphenicol on HL-60 energy utilization; details: negative control without chloramphenicol
# Procedure: In this Example, methods for testing antimicrobial-induced modulation in growth of a cell are described. The antimicrobial selected for this Example is chloramphenicol. However, this application is not intended to be limited to the use of chloramphenicol, translation inhibitors or even antibiotics. HL-60 cells were cultured as described in Example 27.
# After washing, HL-60 cells were resuspended in DME-R. An aliquot of the cell suspension was counted by trypan blue exclusion and the cell density was adjusted to 6.67×10^5[…]. Fifty μL of DME-R containing 3 mM chloramphenicol were added to each well of the appropriate number of half area, 96-well plates, followed by 25 μL of the appropriate dilution of each test energy source. Stocks of 133 mM of each test chemical were prepared in tissue culture grade water, sterile filtered, and dilutions were prepared in a master plate so that, upon dilution in a total volume of 150 μL, the final concentrations would be 0.033 to 20 mM. Negative control wells received 25 μL of tissue culture grade water. The cells were plated at a volume of 75 μL/well, giving a final cell density of 5×10^4/well. For each plate containing energy sources and cells, a second, control plate containing only energy sources was prepared. Plates were incubated at 5% CO2, 90-100% humidity, and 37° C. for 24 hours prior to addition of the MTS/MPMS colorimetric reagent (7.5 μL/well). The color formed in each well 24 hours after addition of the colorimetric reagent, was measured with a plate reader at 490 nm with a reference wavelength of 650 nm. OD values from the control plate were subtracted from the OD values obtained with cells prior to normalizing the data to % negative control.
# Data shown in Table 25 are expressed as percent negative control without chloramphenicol. […] Chloramphenicol clearly has a different effect on the cells than citrate shown in Example 33.
# [4] = energy source 0.03 mM with 1 mM chloramphenicol
# [5] = energy source 0.10 mM with 1 mM chloramphenicol
# [6] = energy source 0.33 mM with 1 mM chloramphenicol
# [7] = energy source 1.00 mM with 1 mM chloramphenicol
# [8] = energy source 3.3 mM with 1 mM chloramphenicol
# [9] = energy source 10 mM with 1 mM chloramphenicol
# [10] = energy source 15 mM with 1 mM chloramphenicol
# [11] = energy source 20 mM with 1 mM chloramphenicol
SMILES,Energy Use by Undifferentiated HL-60 Cells ([1]; Conc. 0.03 mM),Energy Use by Undifferentiated HL-60 Cells ([1]; Conc. 0.10 mM),Energy Use by Undifferentiated HL-60 Cells ([1]; Conc. 0.33 mM),Energy Use by Undifferentiated HL-60 Cells ([1]; Conc. 1.00 mM),Energy Use by Undifferentiated HL-60 Cells ([1]; Conc. 3.3 mM),Energy Use by Undifferentiated HL-60 Cells ([1]; Conc. 10 mM),Energy Use by Undifferentiated HL-60 Cells ([1]; Conc. 15 mM),Energy Use by Undifferentiated HL-60 Cells ([1]; Conc. 20 mM),HL-60 Cell Responses to Selected Compounds from PM1 and PM2 (HL-60 cells [2]; Conc. 0.03 mM),HL-60 Cell Responses to Selected Compounds from PM1 and PM2 (HL-60 cells [2]; Conc. 0.10 mM),HL-60 Cell Responses to Selected Compounds from PM1 and PM2 (HL-60 cells [2]; Conc. 0.33 mM),HL-60 Cell Responses to Selected Compounds from PM1 and PM2 (HL-60 cells [2]; Conc. 1.00 mM),HL-60 Cell Responses to Selected Compounds from PM1 and PM2 (HL-60 cells [2]; Conc. 3.3 mM),HL-60 Cell Responses to Selected Compounds from PM1 and PM2 (HL-60 cells [2]; Conc. 10 mM),HL-60 Cell Responses to Selected Compounds from PM1 and PM2 (HL-60 cells [2]; Conc. 15 mM),HL-60 Cell Responses to Selected Compounds from PM1 and PM2 (HL-60 cells [2]; Conc. 20 mM),Effect of 1 mM chloramphenicol on HL-60 Energy Utilization (HL-60 cells [3]; [4]),Effect of 1 mM chloramphenicol on HL-60 Energy Utilization (HL-60 cells [3]; [5]),Effect of 1 mM chloramphenicol on HL-60 Energy Utilization (HL-60 cells [3]; [6]),Effect of 1 mM chloramphenicol on HL-60 Energy Utilization (HL-60 cells [3]; [7]),also measured
O=C1O[C@@H]([C@H](O)CO)[C@H](O)[C@H]1O [D-gal acid g-lactone],122.7 % of negative control,127.4 % of negative control,125.3 % of negative control,133.2 % of negative control,152.6 % of negative control,136.7 % of negative control,147.5 % of negative control,125.0 % of negative control,128.3 % of negative control,128.7 % of negative control,129.3 % of negative control,141.4 % of negative control,142.2 % of negative control,127.1 % of negative control,122.2 % of negative control,93.9 % of negative control,,,,,
O=C[C@H](O)[C@@H](O)[C@@H](O)[C@H](O)C(=O)O [D-galacturonic acid],,,,,,,,,,,,,,,,,0.2 % of negative control,−2.7 % of negative control,−4.6 % of negative control,−4.6 % of negative control,"Effect of 1 mM chloramphenicol on HL-60 Energy Utilization (HL-60 cells [3]; [8]): 7.9 % of negative control; Effect of 1 mM chloramphenicol on HL-60 Energy Utilization (HL-60 cells [3]; [9]): 8.4 % of negative control; Effect of 1 mM chloramphenicol on HL-60 Energy Utilization (HL-60 cells [3]; [10]): 5.0 % of negative control; Effect of 1 mM chloramphenicol on HL-60 Energy Utilization (HL-60 cells [3]; [11]): −12.8 % of negative control; activity at 30 µM ([1]; Homo sapiens, HL-60, 24 h, Conc. 0.03 mM, read-out: Energy Use by Undifferentiated HL-60 Cells): 116%; activity at 100 µM ([1]; Homo sapiens, HL-60, 24 h, Conc. 0.10 mM, read-out: Energy Use by Undifferentiated HL-60 Cells): 116%; activity at 330 µM ([1]; Homo sapiens, HL-60, 24 h, Conc. 0.33 mM, read-out: Energy Use by Undifferentiated HL-60 Cells): 116%; activity at 1000 µM ([1]; Homo sapiens, HL-60, 24 h, Conc. 1.00 mM, read-out: Energy Use by Undifferentiated HL-60 Cells): 141%; activity at 3300 µM ([1]; Homo sapiens, HL-60, 24 h, Conc. 3.3 mM, read-out: Energy Use by Undifferentiated HL-60 Cells): 144%; activity at 10000 µM ([1]; Homo sapiens, HL-60, 24 h, Conc. 10 mM, read-out: Energy Use by Undifferentiated HL-60 Cells): 134%; activity at 15000 µM ([1]; Homo sapiens, HL-60, 24 h, Conc. 15 mM, read-out: Energy Use by Undifferentiated HL-60 Cells): 162%; activity at 20000 µM ([1]; Homo sapiens, HL-60, 24 h, Conc. 20 mM, read-out: Energy Use by Undifferentiated HL-60 Cells): 113%; activity at 30 µM (HL-60 cells [2]; Homo sapiens, HL-60, Conc. 0.03 mM, read-out: HL-60 Cell Responses to Selected Compounds from PM1 and PM2): 124%; activity at 100 µM (HL-60 cells [2]; Homo sapiens, HL-60, Conc. 0.10 mM, read-out: HL-60 Cell Responses to Selected Compounds from PM1 and PM2): 125%; activity at 330 µM (HL-60 cells [2]; Homo sapiens, HL-60, Conc. 0.33 mM, read-out: HL-60 Cell Responses to Selected Compounds from PM1 and PM2): 126%; activity at 1000 µM (HL-60 cells [2]; Homo sapiens, HL-60, Conc. 1.00 mM, read-out: HL-60 Cell Responses to Selected Compounds from PM1 and PM2): 138%; activity at 3300 µM (HL-60 cells [2]; Homo sapiens, HL-60, Conc. 3.3 mM, read-out: HL-60 Cell Responses to Selected Compounds from PM1 and PM2): 140%; activity at 10000 µM (HL-60 cells [2]; Homo sapiens, HL-60, Conc. 10 mM, read-out: HL-60 Cell Responses to Selected Compounds from PM1 and PM2): 122%; activity at 15000 µM (HL-60 cells [2]; Homo sapiens, HL-60, Conc. 15 mM, read-out: HL-60 Cell Responses to Selected Compounds from PM1 and PM2): 101%; activity at 20000 µM (HL-60 cells [2]; Homo sapiens, HL-60, Conc. 20 mM, read-out: HL-60 Cell Responses to Selected Compounds from PM1 and PM2): 25%"
O=C1O[C@H]([C@@H](O)CO)[C@@H](O)[C@@H]1O [L-gal acid g-lactone],117.0 % of negative control,125.9 % of negative control,132.9 % of negative control,137.0 % of negative control,160.8 % of negative control,153.0 % of negative control,163.4 % of negative control,126.2 % of negative control,129.3 % of negative control,132.3 % of negative control,132.4 % of negative control,145.0 % of negative control,141.5 % of negative control,122.8 % of negative control,125.0 % of negative control,100.4 % of negative control,−2.0 % of negative control,−8.4 % of negative control,4.3 % of negative control,−13.9 % of negative control,Effect of 1 mM chloramphenicol on HL-60 Energy Utilization (HL-60 cells [3]; [8]): 3.7 % of negative control; Effect of 1 mM chloramphenicol on HL-60 Energy Utilization (HL-60 cells [3]; [9]): 14.5 % of negative control; Effect of 1 mM chloramphenicol on HL-60 Energy Utilization (HL-60 cells [3]; [10]): 18.0 % of negative control; Effect of 1 mM chloramphenicol on HL-60 Energy Utilization (HL-60 cells [3]; [11]): 2.4 % of negative control
O=C(O)[C@@H]1C[C@@H](O)CN1 [hydroxy L-proline],109.9 % of negative control,112.9 % of negative control,99.6 % of negative control,104.7 % of negative control,114.7 % of negative control,117.8 % of negative control,124.2 % of negative control,101.8 % of negative control,125.0 % of negative control,122.8 % of negative control,121.5 % of negative control,128.4 % of negative control,129.6 % of negative control,121.5 % of negative control,111.8 % of negative control,99.2 % of negative control,1.2 % of negative control,−5.0 % of negative control,2.6 % of negative control,−1.2 % of negative control,"Effect of 1 mM chloramphenicol on HL-60 Energy Utilization (HL-60 cells [3]; [8]): 4.4 % of negative control; Effect of 1 mM chloramphenicol on HL-60 Energy Utilization (HL-60 cells [3]; [9]): 1.7 % of negative control; Effect of 1 mM chloramphenicol on HL-60 Energy Utilization (HL-60 cells [3]; [10]): 15.7 % of negative control; Effect of 1 mM chloramphenicol on HL-60 Energy Utilization (HL-60 cells [3]; [11]): 0.6 % of negative control; response greater than the negative control (HL-60 cells [2]; 0.033 to 20 mM, 24 h culture + 24 h color development): < 30%"
